Like-named read-outs stand apart in the source and are kept apart here.
Experiments:
[1] = system: KRas wild type; experiment: Ras GTP Binding Domain Inhibition Assay (Ras Superfamily Assay); details: 20 μM compound; for KRas wild type + SOS: % inh.: with SOS; for KRas wild type: % inh.: without SOS
Excerpt: (§1) Biological Example 3: Ras GTP Binding Domain Inhibition Assay
(§2) The assays described in Example 3 are collectively referred to as the “Ras Superfamily Assay” throughout this application.
(§3) A Ras Superfamily Activity Assay (as disclosed in International Application No. PCT/US2018/038613, filed Jun. 20, 2018, which is incorporated by reference in its entirety) was used as a specific assay to evaluate compounds against the following for the following Ras Superfamily proteins: KRas wild type, KRas Q61H mutant, KRas G12C mutant, KRas G12D mutant, Rac-1, and Rho-A.
(§4) • 25 mM Tris-HCl, pH 7.4 • 27 mM KCl • 137 mM NaCl • 1 mM MgCl2 • 1 mM DTT Buffer-II: • 50 mM Tris-HCl, pH 7.0 • 1 mM MgCl2 • 1 mM DTT
(§5) The small GTPases proteins: KRas wild type. KRas Q61H mutant, KRas G12C mutant, KRas G12D mutants, Rac-1, and Rho-A were expressed as His-tagged proteins. In addition, the Guanosine nucleotide Exchange Factor (GEF) Sos protein (residues 556-1049) was expressed as a His-tagged protein. In cells, the guanine nucleotide exchange factor Sos protein promotes activation of Ras proteins by stimulating an exchange of GDP for GTP. The inclusion of Sos to the Ras GTP binding domain inhibition assay may be considered as an alternative representation of physiological cellular conditions for evaluating the inhibitory activity of some of the tested small molecules.
(§6) For the assay, all purified small GTPases proteins were diluted in Buffer-I or Buffer-II to a final concentration of 10-30 μg/mL. 200 μL of each diluted protein was added to a nickel-coated 96-well plate and incubated overnight at 4° C. Then the protein solution was discarded and 200 μL of Buffer-I or Buffer-II was added to each well in the presence of 1% DMSO. Compounds to be tested were added to the protein-coated wells at final concentration of 20 μM, and incubated for 3 hours at room temperature with and without 10-30 μg/mL of Sos added to the final hour of the incubation. When performing IC50 measurements a serial dilution of all tested concentrations was added. Then Cy3-GTP or Cy5-GTP was added to each well to a final concentration of 100 nM. The labeled GTP was incubated for 45 minutes at room temperature. Following GTP incubation, wells were washed 3× in Buffer-I or Buffer-II and 200 μL of Buffer-I or Buffer-II was added to each well. Following washes, the amount of bound labeled-GTP was measured using a SpectraMax M3 (Molecular Devices).

[2] = molecular target: T1, Rac-1 (Homo sapiens, UniProt P63000); experiment: as above; details: read-out: Rac-1: % inh.
T1 construct: made in house
Excerpt: as §1, §2, §3, §4, §5, §6

[3] = system: KRas G12D mutant; experiment: as above; details: 20 μM compound; for KRas G12D mutant + SOS: % inh.: with SOS; for KRas G12D mutant: % inh.: without SOS
Excerpt: as §1, §2, §3, §4, §5, §6

[4] = system: MiaPaca-2 (expressing KRAS G12C mutant); experiment: Proliferation Assay (Cell Viability Assay); assay type: cell-based; details: Homo sapiens, MIA PaCa-2
Method: Protocol for Proliferation Assay
This assay is referred to as the “Proliferation Assay” or “Cell Viability Assay” throughout this application.
Cell lines: Human tumor-derived cell lines were purchased from American Type Culture Collection. Human tumor-derived pancreatic cancer cell line MiaPaca-2 (expressing KRAS G12C mutant) and Panc-1 (expressing KRas G12D mutant), and Human non-small cell lung cancer (NSCLC) cell line A549 (expressing KRas G12S mutant) were grown in complete DMEM-High Glucose medium. Human colon cancer cell line SW-620 (expressing KRas G12V mutant) was grown in RPMI 1640 medium. All cell lines were supplemented with penicillin (100 U/mL), streptomycin (100 μg/mL), and 10% heat-inactivated FBS at 37° C. in a humidified incubator with 5% CO2.
(§7) Method: Cells were plated at 2000 to 5000 cells/well density in 96-wells plate and cultured overnight. Small molecules to be tested were added to the cells in the final concentration of 10 μM in the presence of 0.3% DMSO and 10% FBS and incubated for 2-4 days at 37° C. in a humidified incubator with 5% CO2. For IC50 value determination, serial dilutions of compounds were added to cells under the same conditions.
Assay: At the end of the incubation period, cell viability was determined using the CellTiter 96® Aqueous One Solution Cell Proliferation Assay according to manufacturer specifications (Promega, Madison, WI). The percentage of small molecules inhibition of cellular proliferation was calculated from raw data.
Cell lines: these Human tumor-derived cell lines were purchased from American Type Culture Collection. Human tumor-derived pancreatic cancer cell line MiaPaca-2 (expressing KRAS G12C mutant) and Panc-1 (expressing KRas G12D mutant), and Human non-small cell lung cancer (NSCLC) cell line A549 (expressing KRas G12S mutant), and Human melanoma cell line A375 (wild type Kras) were grown in complete DMEM-High Glucose medium. Human tumor-derived pancreatic cancer cell lines SU86.86 (expressing KRas G12D mutant), BxPC3 (expressing wild type K-Ras), and Human non-small cell lung cancer (NSCLC) cell lines NCI-H441 (expressing KRas G12S mutant), NCI-H1975 (expressing wild type KRas), NCI-H358 (expressing KRas G12C mutant), NCI-H1299 (expressing NRas Q61H mutant), and Human colon cancer cell line SW-620 (expressing KRas G12V mutant), Human triple negative breast cancer cell line HCC-1806 (expressing wild type KRas), and Human tumor-derived multiple myeloma cell line MM.1R (expressing wild type KRAS), were grown in RPMI 1640 medium. Human tumor-derived breast cancer cell line BT-549 (expressing wild type KRAS) was grown in RPMI 1640 medium in the presence of 11.8U insulin. Human tumor-derived pancreatic cancer cell line HPAF-II (expressing KRas G12D mutant), Human triple negative breast cancer cell line BT-20 (expressing wild type KRas), and Human colon cancer cell line LS123 (expressing KRas G12S mutant), were grown in EMEM medium. Human tumor-derived pancreatic cancer cell line CF-PAC1 (expressing KRas G12V mutant) was frown in IMDM medium, and Human colon cancer cell line HT29 (expressing wild type KRas) was grown in McCoy's 5A medium. The colon cancer cell line GP2d (expressing KRas G12D mutant) was purchased from MilliporeSigma and grown in DMEM-High Glucose medium. All cell lines were supplemented with penicillin (100 U/mL), streptomycin (100 μg/mL), and 10% heat-inactivated FBS at 37° C. in a humidified incubator with 5% CO2.
as §7, with “that were” for “to be”, “FBS,” for “FBS”

[5] = read-out: Proliferation in MiaPaca-2: IC50

Row | KRas wild type + SOS: % inh. [1] | KRas wild type: % inh. [1] | inhibition at 20 µM [2] | KRas G12D mutant + SOS: % inh. [3] | KRas G12D mutant: % inh. [3] | IC50 [4, 5] | IC50 ([4]; Proliferation assay, MiaPaca-2, read-out: MiaPaca-2 IC50 (nM) Pancreatic) | SMILES
1 | B (B = 26-49% inhibition) | C (C = 50-75% inhibition) | 50 to 75% | B (B = 26-49% inhibition) | C (C = 50-75% inhibition) | < 150 nM |  | COc1cc(Nc2nc(-c3nccn3C)nn3cc(-c4ccccn4)c(C)c23)ncn1 [Compound 94, N-(6-Methoxypyrimidin-4-yl)-5-methyl-2-(1-methyl-1H-imidazol-2-yl)-6-(pyridin-2-yl)pyrrolo[2,1-f][1,2,4]triazin-4-amine]
2 | D (D = 76-100% inhibition) | D (D = 76-100% inhibition) | 76 to 100% | D (D = 76-100% inhibition) | D (D = 76-100% inhibition) | < 150 nM |  | COc1ccnc(Nc2nc(-c3nccn3C)nn3cc(-c4ccn(C)n4)c(C)c23)n1.Cl [Compound 114, N-(4-Methoxypyrimidin-2-yl)-5-methyl-2-(1-methyl-1H-imidazol-2-yl)-6-(1-methyl-1H-pyrazol-3-yl)pyrrolo[2,1-f][1,2,4]triazin-4-amine hydrochloride salt]
3 | B (B = 26-49% inhibition) | C (C = 50-75% inhibition) | 76 to 100% | C (C = 50-75% inhibition) | C (C = 50-75% inhibition) | < 150 nM |  | COc1ccnc(Nc2nc(-c3nccn3C)nn3cc(-c4ccn(C(F)F)n4)c(C)c23)n1 [Compound 95, 6-(1-(Difluoromethyl)-1H-pyrazol-3-yl)-N-(4-methoxypyrimidin-2-yl)-5-methyl-2-(1-methyl-1H-imidazol-2-yl)pyrrolo[2,1-f][1,2,4]triazin-4-amine]
4 | A (A = 1-25% inhibition) | C (C = 50-75% inhibition) | 50 to 75% | C (C = 50-75% inhibition) | C (C = 50-75% inhibition) | < 150 nM |  | COc1cc(Nc2nc(-c3nccn3C)nn3cc(-c4ccn(C(F)F)n4)c(C)c23)ncn1 [Compound 98, 6-(1-(Difluoromethyl)-1H-pyrazol-3-yl)-N-(6-methoxypyrimidin-4-yl)-5-methyl-2-(1-methyl-1H-imidazol-2-yl)pyrrolo[2,1-f][1,2,4]triazin-4-amine]
5 | D (D = 76-100% inhibition) | C (C = 50-75% inhibition) | 76 to 100% | D (D = 76-100% inhibition) | D (D = 76-100% inhibition) | < 150 nM |  | Cc1c(-c2ccn(C)n2)cn2nc(-c3nccn3C)nc(Nc3n[nH]c(C4CC4)n3)c12 [Compound 113, N-(5-Cyclopropyl-1H-1,2,4-triazol-3-yl)-5-methyl-2-(1-methyl-1H-imidazol-2-yl)-6-(1-methyl-1H-pyrazol-3-yl)pyrrolo[2,1-f][1,2,4]triazin-4-amine]

Further lines, the compound ahead of its results:

Row | SMILES | KRas wild type + SOS: % inh. [1] | KRas wild type: % inh. [1] | inhibition at 20 µM [2] | KRas G12D mutant + SOS: % inh. [3] | KRas G12D mutant: % inh. [3] | IC50 [4, 5] | IC50 ([4]; Proliferation assay, MiaPaca-2, read-out: MiaPaca-2 IC50 (nM) Pancreatic)
6 | COc1cnc(Nc2nc(-c3nccn3C)nn3cc(-c4ccn(C)n4)c(C)c23)nc1.Cl [Compound 117, N-(5-Methoxypyrimidin-2-yl)-5-methyl-2-(1-methyl-1H-imidazol-2-yl)-6-(1-methyl-1H-pyrazol-3-yl)pyrrolo[2,1-f][1,2,4]triazin-4-amine hydrochloride salt] | A (A = 1-25% inhibition) | A (A = 1-25% inhibition) | 1 to 25% | A (A = 1-25% inhibition) | A (A = 1-25% inhibition) | < 150 nM | 
7 | Cc1c(-c2ccn(C)n2)cn2nc(-c3nccn3C)nc(Nc3cc(OC(C)C)ccn3)c12 [Compound 136, N-(4-Isopropoxypyridin-2-yl)-5-methyl-2-(1-methyl-1H-imidazol-2-yl)-6-(1-methyl-1H-pyrazol-3-yl)pyrrolo[2,1-f][1,2,4]triazin-4-amine] | D (D = 76-100% inhibition) | C (C = 50-75% inhibition) | 76 to 100% | D (D = 76-100% inhibition) | D (D = 76-100% inhibition) | < 150 nM | 
8 | Cc1c(-c2ccn(C)n2)cn2nc(-c3nccn3C)nc(Nc3cc(C4CC4)[nH]n3)c12 [Compound 104, N-(5-Cyclopropyl-1H-pyrazol-3-yl)-5-methyl-2-(1-methyl-1H-imidazol-2-yl)-6-(1-methyl-1H-pyrazol-3-yl)pyrrolo[2,1-f][1,2,4]triazin-4-amine] | D (D = 76-100% inhibition) | D (D = 76-100% inhibition) | 76 to 100% | D (D = 76-100% inhibition) | D (D = 76-100% inhibition) | < 150 nM | 1 to 10 nM
9 | COCCO[C@H]1C[C@H](Nc2nc(-c3nccn3C)nn3cc(-c4cccnc4)c(C)c23)C1 [Compound 152, N-((1r,3r)-3-(2-methoxyethoxy)cyclo-butyl)-5-methyl-2-(1-methyl-1H-imidazol-2-yl)-6-(pyridin-3-yl)pyrrolo[2,1-f][1,2,4]triazin-4-amine] | B (B = 26-49% inhibition) | C (C = 50-75% inhibition) | 50 to 75% | C (C = 50-75% inhibition) | C (C = 50-75% inhibition) | > 1000 nM | 
